In assay [1] the target is T1, phosphorylated ERBB2 (pERBB2) (Homo sapiens, UniProt P04626).
T1 construct: endogenous in cells; host or cells: BT-474
Nature of the assay: Detection of phosphorylated ERBB2 (pERBB2) by ELISA in BT-474 cells. In kind it is cell-based. The following applies: four hour incubation. How it is done:
BT-474 cells were seeded into a 96-well at 2.0*10^4 cells/100 μl/well. Compounds were dissolved and serially diluted in DMSO. The compounds were then were added, mixed, and incubated for four hours at 37° C., 5% CO2. Compounds were added using four-fold dilutions at final concentrations ranging from 10 μM to 0.01 nM. Following the four hour incubation with compounds, cell lysates were prepared. Plates were centrifuged for 5 μmin at 3000 RPM, and supernatant was removed from each well. Cells were washed 3 times by resuspension in 150 μl PBS, followed by centrifugation and removal of the supernatant, as above. 100 μl of cell lysis buffer (Boston BioProducts, cat #BP-115D) supplied with 1× complete ULTRA cocktail inhibitor (Thermo ScientificTM, cat #78443) was then added to the washed cells. Cells were incubated with lysis buffer for 1 hour at 4° C., and then stored at -80° C. Enzyme-linked immunosorbent assays (ELISA) were performed to measure phosphorylated ERBB2 levels. […] The next day, plates were washed with PBS+0.05% Tween20 (PBST). 150 μl of 5% BSA blocking solution was added for 1 hour at room temperature, with shaking. Plates were washed with PBST. Cell lysates were thawed and 100 μl of lysate was added to the ELISA plate. The plates were incubated for 2 hours at room temperature, with shaking. ELISA plates were then washed with PBST and 100 μl of an HRP-labeled detection antibody that binds phosphorylated tyrosine (R&D Systems, cat #841913) was added to each well. Plates were incubated for 1 hour at room temperature, with shaking. Plates were then washed with PBST, and 100 μl TMB substrate solution (R&D Systems, cat #DY999) was added. Plate were incubated in the dark for 20 minutes at room temperature. 50 μl of Stop solution (R&D Systems, cat #DY994) (50 μl) was added to each well and mixed. Optical density at 450 nm was read on an EnSpire plate reader (Perkin Elmer). The remaining kinase activity by calculated using the following formula: % Relative activity=100×([…]). The low and high control values (“LC” and “HC”) were generated from lysate from wells without cells or with cells treated with 0.1% DMSO, respectively.

The target of assay [2] is T2, phosphorylated EGFR (pEGFR) (Homo sapiens, UniProt P00533).
T2 construct: performed to measure phosphorylated EGFR levels using A431 cells (10% FBS); endogenous in cells; host or cells: A431
Nature of the assay: Detection of phosphorylated EGFR (pEGFR) by AlphaLISA in EGF-stimulated A431 cells. In kind it is cell-based. To be noted: A431 cells (10% FBS), 4 hours incubation, EGF 30 ng/mL for 10 minutes. How it is done: Enzyme-linked immunosorbent assays (ELISA) were performed to measure phosphorylated EGFR levels using A431 cells (10% FBS). A431 (1.0*10^4 cells/40 μl/well) cells were seeded in 384 well. Compounds were dissolved in DMSO, serially diluted in DMSO and then were added, mixed, and incubated for 4 hours at 37° C., 5% C02. Following the 4-hours incubation, cells were stimulated for 10 minutes with EGF (Invitrogen, cat #PHG0311) at a final concentration of 30 ng/mL in the incubator. The media was aspirated and cells were lysed in 10 μL lysis buffer with protease and phosphatase inhibitors (PerkinElmer, cat #ALSU-PEGFR-A50K). The plates were placed on a shaker for 5 μminutes and then incubated for 30 min at 4° C. for complete lysis. The lysate was transferred to an Optiplate (Perkin Elmer, cat #6007290).
Acceptor mix (PerkinElmer, cat #ALSU-PEGFR-A50K) was prepared just before use and 5 μL was dispensed to all the wells, followed by a 1.5-2 h incubation at room temperature in dark. The donor mix (PerkinElmer, cat #ALSU-PEGFR-A50K) was prepared under low light conditions prior to use and 5 μl of donor mix was added to all the wells under subdued lighting or green filters. The plates were placed on a shaker for 5 μmin, sealed, and incubated overnight at room temperature in dark. Plates were read on the Envision (PerkinElmer) using standard AlphaLISA settings.
The percentage of inhibition on EGFR phosphorylation was calculated following equation: % Inhibition=100×(LumHC−LumSample)/(LumHC−LumLC). The low and high controls (LC/HC) are generated from lysate from wells with cells treated with DMSO or […] Staurosporine (BioAustralis, cat #BIA-S1086), […]. IC50 values were calculated by fitting the Curve using XLfit (v5.3.1.3), equation 201: Y=Bottom+(Top−Bottom)/(1+10^((Log IC50−X)*HillSlope)).

T1 sequence (P04626 23-1255): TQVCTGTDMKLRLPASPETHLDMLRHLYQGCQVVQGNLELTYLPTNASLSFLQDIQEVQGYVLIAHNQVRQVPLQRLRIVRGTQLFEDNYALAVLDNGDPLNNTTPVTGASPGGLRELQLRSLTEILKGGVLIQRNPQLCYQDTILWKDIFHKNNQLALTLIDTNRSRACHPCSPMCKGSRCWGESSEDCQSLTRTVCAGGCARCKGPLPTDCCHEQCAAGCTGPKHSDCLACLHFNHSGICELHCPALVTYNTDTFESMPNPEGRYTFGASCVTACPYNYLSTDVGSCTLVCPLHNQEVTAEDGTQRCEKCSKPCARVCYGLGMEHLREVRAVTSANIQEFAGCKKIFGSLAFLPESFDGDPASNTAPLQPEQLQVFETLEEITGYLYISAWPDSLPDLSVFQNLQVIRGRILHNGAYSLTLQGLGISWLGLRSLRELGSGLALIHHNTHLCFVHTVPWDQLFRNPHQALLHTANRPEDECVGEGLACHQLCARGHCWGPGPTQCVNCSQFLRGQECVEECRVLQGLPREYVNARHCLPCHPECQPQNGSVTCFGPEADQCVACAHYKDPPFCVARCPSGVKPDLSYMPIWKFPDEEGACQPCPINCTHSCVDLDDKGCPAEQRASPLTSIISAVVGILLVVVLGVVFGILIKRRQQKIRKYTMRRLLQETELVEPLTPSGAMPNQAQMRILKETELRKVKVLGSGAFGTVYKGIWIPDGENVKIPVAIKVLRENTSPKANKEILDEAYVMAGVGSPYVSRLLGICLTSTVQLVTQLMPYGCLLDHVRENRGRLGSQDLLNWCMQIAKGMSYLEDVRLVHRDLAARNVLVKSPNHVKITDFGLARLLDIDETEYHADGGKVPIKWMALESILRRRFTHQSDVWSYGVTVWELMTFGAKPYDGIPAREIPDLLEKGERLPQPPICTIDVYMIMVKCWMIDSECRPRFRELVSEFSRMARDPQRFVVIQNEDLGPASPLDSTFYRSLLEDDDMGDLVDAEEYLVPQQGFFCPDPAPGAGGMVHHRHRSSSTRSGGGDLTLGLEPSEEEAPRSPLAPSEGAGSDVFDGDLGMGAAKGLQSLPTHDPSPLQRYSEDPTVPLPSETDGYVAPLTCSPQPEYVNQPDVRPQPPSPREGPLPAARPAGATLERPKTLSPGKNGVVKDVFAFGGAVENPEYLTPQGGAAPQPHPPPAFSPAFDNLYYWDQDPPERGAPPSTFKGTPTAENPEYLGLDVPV
T2 sequence (P00533 25-1210): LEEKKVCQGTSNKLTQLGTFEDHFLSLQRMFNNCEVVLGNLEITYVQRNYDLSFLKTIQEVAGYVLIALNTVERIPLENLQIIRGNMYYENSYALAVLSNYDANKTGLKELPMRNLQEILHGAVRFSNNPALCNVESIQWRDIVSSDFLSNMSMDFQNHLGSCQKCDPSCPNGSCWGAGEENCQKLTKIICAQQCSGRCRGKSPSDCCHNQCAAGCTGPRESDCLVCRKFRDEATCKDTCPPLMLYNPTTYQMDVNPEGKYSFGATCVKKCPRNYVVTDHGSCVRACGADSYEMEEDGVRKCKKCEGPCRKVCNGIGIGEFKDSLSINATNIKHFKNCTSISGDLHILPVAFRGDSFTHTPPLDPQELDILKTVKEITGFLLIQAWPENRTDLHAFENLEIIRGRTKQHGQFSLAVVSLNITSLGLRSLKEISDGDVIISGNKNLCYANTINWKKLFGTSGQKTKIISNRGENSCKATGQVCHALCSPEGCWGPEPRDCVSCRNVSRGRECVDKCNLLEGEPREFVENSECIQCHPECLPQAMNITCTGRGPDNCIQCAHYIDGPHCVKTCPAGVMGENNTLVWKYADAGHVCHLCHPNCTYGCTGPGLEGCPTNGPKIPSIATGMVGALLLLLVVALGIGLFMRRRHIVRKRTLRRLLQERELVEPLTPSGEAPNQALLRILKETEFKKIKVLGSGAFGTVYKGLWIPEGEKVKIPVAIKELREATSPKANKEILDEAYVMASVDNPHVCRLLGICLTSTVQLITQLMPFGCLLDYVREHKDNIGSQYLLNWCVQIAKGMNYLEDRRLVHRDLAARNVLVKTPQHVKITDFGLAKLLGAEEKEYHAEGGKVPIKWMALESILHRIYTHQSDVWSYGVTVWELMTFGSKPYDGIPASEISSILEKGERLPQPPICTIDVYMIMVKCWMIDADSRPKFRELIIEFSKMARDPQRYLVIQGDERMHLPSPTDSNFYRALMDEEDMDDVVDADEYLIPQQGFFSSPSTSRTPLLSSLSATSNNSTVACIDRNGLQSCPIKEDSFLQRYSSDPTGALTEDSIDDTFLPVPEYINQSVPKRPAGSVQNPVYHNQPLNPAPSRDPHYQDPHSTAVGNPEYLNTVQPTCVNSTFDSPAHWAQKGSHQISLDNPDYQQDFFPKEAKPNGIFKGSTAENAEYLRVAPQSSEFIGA

In the case of `Cc1cc(Nc2ncnc3ccc4c(c23)OC[C@@H]2CN(C)CCN42)ccc1Oc1ccn2ncnc2c1` [Compound 44, (S)—N-(4-([1,2,4]triazolo[1,5-a]pyridin-7-yloxy)-3-methylphenyl)-8-methyl-6,6a,7,8,9,10-hexahydropyrazino[1′,2′:4,5][1,4]oxazino[2,3-f]quinazolin-4-amine], the IC50 in assay [1] is 218 nM; in assay [2], over 10000 nM.

Take `Cc1cc(Nc2ncnc3cc4c(nc23)N2CCN(C)C[C@H]2CO4)ccc1Oc1ccc2c(c1)ncn2C` [Compound 38, (S)-3-methyl-N-(3-methyl-4-((1-methyl-1H-benzo[d]imidazol-5-yl)oxy)phenyl)-1,2,3,4,4a,5-hexahydropyrazino[1,2-d]pyrimido[4′,5′:5,6]pyrido[3,2-b][1,4]oxazin-11-amine]: the IC50 in assay [1] is 60.6 nM; in assay [2], over 10000 nM.

For `Cc1cc(Nc2ncnc3cc4c(nc23)N2CC[C@H]2CO4)ccc1Oc1ccn2ncnc2c1` [Compound 70, (S)—N-(4-([1,2,4]triazolo[1,5-a]pyridin-7-yloxy)-3-methylphenyl)-1,2,2a,3-tetrahydroazeto[1,2-d]pyrimido[4′,5′:5,6]pyrido[3,2-b][1,4]oxazin-9-amine], the figures for the IC50 in assay [1] and in assay [2] were 185 nM and over 10000 nM, respectively.

For `Cc1cc(Nc2ncnc3cc4c(c(F)c23)N2CCN(C)C[C@H]2CO4)ccc1Oc1ccn2ncnc2c1` [Compound 66, (S)—N-(4-([1,2,4]triazolo[1,5-a]pyridin-7-yloxy)-3-methylphenyl)-12-fluoro-3-methyl-1,2,3,4,4a,5-hexahydropyrazino[1′,2′:4,5][1,4]oxazino[3,2-g]quinazolin-11-amine], the values for the IC50 in assay [1] and in assay [2] were 119 nM and over 10000 nM, respectively.

With `Cc1cc(Nc2ncnc3ccc4c(c23)OC[C@@H]2CN4CCN2)ccc1Oc1ccc2c(c1)ncn2C` [Compound 53, (3S)—N-(3-methyl-4-((1-methyl-1H-benzo[d]imidazol-5-yl)oxy)phenyl)-3,4,5,6-tetrahydro-2H-3,7-methano[1,4,7]oxadiazonino[2,3-f]quinazolin-13-amine], the IC50 in assay [1] was 541 nM; in assay [2], over 10000 nM.

In the case of `Cc1cc(Nc2ncnc3ccc4c(c23)OC[C@H]2CN4CCN2C)ccc1Oc1ccc2c(c1)ncn2C` [Compound 56, (3R)-4-methyl-N-(3-methyl-4-((1-methyl-1H-benzo[d]imidazol-5-yl)oxy)phenyl)-3,4,5,6-tetrahydro-2H-3,7-methano[1,4,7]oxadiazonino[2,3-f]quinazolin-13-amine], the IC50 in assay [1] is 127 nM; in assay [2], over 10000 nM.

On to `Cc1cc(Nc2ncnc3ccc4c(c23)OC[C@@H]2CN4CCO2)ccc1Oc1ccn2ncnc2c1` [Compound 72, (3S)—N-(4-([1,2,4]triazolo[1,5-a]pyridin-7-yloxy)-3-methylphenyl)-2,3,5,6-tetrahydro-3,7-methano[1,4,7]dioxazonino[5,6-f]quinazolin-13-amine], for which the results for the IC50 in assay [1] and in assay [2] were 417 nM and over 10000 nM, respectively.

Consider `COC(=O)N1CCN2c3ccc4ncnc(Nc5ccc(Oc6ccn7ncnc7c6)c(C)c5)c4c3OC[C@H]2C1` [Compound 110, methyl (R)-4-((4-([1,2,4]triazolo[1,5-a]pyridin-7-yloxy)-3-methylphenyl)amino)-6a,7,9,10-tetrahydropyrazino[1′,2′:4,5][1,4]oxazino[2,3-f]quinazoline-8(6H)-carboxylate], for which the IC50 in assay [1] was 74.7 nM; in assay [2], over 10000 nM.

In the case of `CC(=O)N1CCN2c3ccc4ncnc(Nc5ccc(Oc6ccn7ncnc7c6)c(C)c5)c4c3OC[C@H]2C1` [Compound 109, (R)-1-(4-((4-([1,2,4]triazolo[1,5-a]pyridin-7-yloxy)-3-methylphenyl)amino)-6a,7,9,10-tetrahydropyrazino[1′,2′:4,5][1,4]oxazino[2,3-f]quinazolin-8(6H)-yl)ethan-1-one], the half-maximal inhibitory concentration (IC50) in assay [2] is over 10000 nM.

Source of the values: patent US20260078135A1, “POLYCYCLIC QUINAZOLINES FOR INHIBITION OF ERBB2” (Enliven Inc., priority 2022, published 2026).
